Laboratory results as given in paper PMC2931804 (Clinical cancer research : an official journal of the …, 2010).
“And” between values parts separate entries of the source, which are not always exact repeats. Equal entries are not always repeated. “Also recorded” adds a separate entry of the source.

Tests used:
[1] = FU plasma pharmacokinetics; assay type: in vivo, human; details: at the MTD
[2] = 300 mg orally twice daily × 1 week with FOLFOX; cited from earlier work
[3] = test system: dihydropyrimidine dehydrogenase (DPD); test: DPD activity assay in peripheral blood mononuclear cells; assay type: in vivo, human
thymidylate synthase [4] = details: in vitro and in vivo models, quantitative-PCR analysis; cited from earlier work
[5] = Vorinostat serum pharmacokinetics; assay type: in vivo, human
thymidylate synthase [6] = test: Tumor thymidylate synthase expression by RT-PCR in liver metastasis biopsies; assay type: in vivo, human; details: posttreatment biopsies at the MTD levels
[7] = 600 mg orally twice daily, individual patients, cycle 2
[8] = 1,700 mg orally once daily, individual patients, cycle 2

SMILES: O=C(CCCCCCC(=O)Nc1ccccc1)NO [vorinostat, suberoylanilide hydroxamic acid]
- Pharmacokinetic interactions between vorinostat and FU [1]: No pharmacokinetic interactions
- maximum vorinostat serum concentrations [2]: < 1.5 µmol/L
- Mean DPD level ([3]; once-daily MTD arm, four patients, day 2 of cycle 1, baseline 0.189): 0.142 nmol/min/mg protein
- Mean DPD level ([3]; once-daily MTD arm, four patients, day 3 of cycle 1, baseline 0.189): 0.138 nmol/min/mg protein
- Mean DPD level ([3]; once-daily MTD arm, four patients, day 7 of cycle 1, baseline 0.189): 0.126 nmol/min/mg protein
- Mean DPD level ([3]; twice-daily MTD arm, three patients, day 2 of cycle 1, baseline 0.253): 0.199 nmol/min/mg protein
- Mean DPD level ([3]; twice-daily MTD arm, three patients, day 3 of cycle 1, baseline 0.253): 0.138 nmol/min/mg protein
- Mean DPD level ([3]; twice-daily MTD arm, three patients, day 7 of cycle 1, baseline 0.253): 0.198 nmol/min/mg protein
- Differences in DPD levels over time ([3]; within once-daily or twice-daily cohorts, one way ANOVA (P > 0.05)): not statistically significant
- Downregulation of thymidylate synthase expression (thymidylate synthase [4]): ≤ 100 fold
- AUC0–8 [5, 7]: 7.8 µM·h
- Cmax [5, 7]: 4.99 µM
- Tmax [5, 7]: 2 h and 4 h
- Cmax ([5]; 600 mg orally twice daily, mean of 3 patients (SD 1.51)): 3.46 µM
- AUC0–8 [5, 8]: 35.1 µM·h and 2.6 µM·h and 26 µM·h
- Cmax [5, 8]: 6.4 µM
- Tmax [5, 8]: 1 h
- Cmax ([5]; 1,700 mg orally once daily, mean of 3 patients (SD 3.09)): 4.49 µM
- half-life ([5]; human, oral, half-life, general statement in discussion): ~2 h
- Impact of vorinostat on intratumoral thymidylate synthase expression (thymidylate synthase [6]): No definitive impact; also recorded: no clear signs of thymidylate synthase downregulation
